Reference: article PMC7390918, “NVP-CGM097, an HDM2 Inhibitor, Antagonizes ATP-Binding Cassette Subfamily B Member 1-Mediated Drug Resistance” (Frontiers in Oncology, 2020)

Columns and labels:
ABCB1 [1] = target: T1, ABCB1 (Homo sapiens, UniProt P08183); assay: biochemical
ABCB1 [2] = target: T1, ABCB1

T1 sequence (P08183 whole entry): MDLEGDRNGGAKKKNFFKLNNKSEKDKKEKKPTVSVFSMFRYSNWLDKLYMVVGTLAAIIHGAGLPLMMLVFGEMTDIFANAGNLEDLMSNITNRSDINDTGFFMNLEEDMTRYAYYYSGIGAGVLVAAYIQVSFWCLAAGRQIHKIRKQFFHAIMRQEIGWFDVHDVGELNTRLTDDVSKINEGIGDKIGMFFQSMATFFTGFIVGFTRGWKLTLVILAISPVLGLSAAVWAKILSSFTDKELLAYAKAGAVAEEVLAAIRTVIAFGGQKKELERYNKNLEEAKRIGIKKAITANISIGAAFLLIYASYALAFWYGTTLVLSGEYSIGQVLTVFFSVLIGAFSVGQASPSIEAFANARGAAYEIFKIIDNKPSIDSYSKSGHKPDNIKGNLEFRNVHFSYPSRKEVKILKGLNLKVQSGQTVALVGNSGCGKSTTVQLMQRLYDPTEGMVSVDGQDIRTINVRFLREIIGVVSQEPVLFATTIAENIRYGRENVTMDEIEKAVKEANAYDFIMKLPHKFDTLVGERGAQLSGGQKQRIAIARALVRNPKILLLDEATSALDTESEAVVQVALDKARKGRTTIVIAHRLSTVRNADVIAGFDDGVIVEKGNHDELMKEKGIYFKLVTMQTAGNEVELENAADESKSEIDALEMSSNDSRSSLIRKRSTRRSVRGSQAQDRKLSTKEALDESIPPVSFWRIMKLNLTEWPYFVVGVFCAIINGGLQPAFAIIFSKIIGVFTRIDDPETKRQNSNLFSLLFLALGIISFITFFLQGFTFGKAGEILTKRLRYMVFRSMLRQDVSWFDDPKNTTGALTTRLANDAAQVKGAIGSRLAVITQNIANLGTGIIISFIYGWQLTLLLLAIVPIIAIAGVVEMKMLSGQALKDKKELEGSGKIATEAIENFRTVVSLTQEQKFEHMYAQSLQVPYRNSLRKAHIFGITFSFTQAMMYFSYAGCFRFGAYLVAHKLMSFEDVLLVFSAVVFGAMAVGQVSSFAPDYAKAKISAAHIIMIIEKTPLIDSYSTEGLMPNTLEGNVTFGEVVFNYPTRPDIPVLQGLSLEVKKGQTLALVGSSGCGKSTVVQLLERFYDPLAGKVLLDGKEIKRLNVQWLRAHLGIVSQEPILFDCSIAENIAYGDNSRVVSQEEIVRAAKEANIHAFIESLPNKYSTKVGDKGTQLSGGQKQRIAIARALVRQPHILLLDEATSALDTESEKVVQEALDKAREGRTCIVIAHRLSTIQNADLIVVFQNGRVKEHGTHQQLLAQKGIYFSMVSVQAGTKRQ

EC50 (ABCB1 [1])	Structure (SMILES)	[3H]-paclitaxel accumulation and efflux in KB-C2 versus parental KB-3-1 cells (ABCB1 [2])
450 nM	COc1cc2c(cc1OC(C)C)[C@H](c1ccc(Cl)cc1)N(c1ccc(N(C)C[C@H]3CC[C@H](N4CCN(C)C(=O)C4)CC3)cc1)C(=O)C2 [NVP-CGM097]	
	CC(=O)O[C@H]1C(=O)[C@@]2(C)[C@H]([C@H](OC(=O)c3ccccc3)[C@]3(O)C[C@H](OC(=O)[C@H](O)[C@@H](NC(=O)c4ccccc4)c4ccccc4)C(C)=C1C3(C)C)[C@]1(OC(C)=O)CO[C@@H]1C[C@@H]2O [paclitaxel]	NVP-CGM097 can block the efflux activity of ABCB1-overexpressing cells, therefore, increasing intracellular paclitaxel accumulation
